Experimental findings from patent publication US20240024488A1, “COMPOUNDS AND USES THEREOF” (Foghorn Therapeutics Inc., priority 2020, published 2024) are described below.

The target of test [1] is T1, HiBit-BRG1 fusion protein (Homo sapiens, UniProt P51532).
T1 construct: expressed in transfected cells
In words: HiBiT-BRG1 cell-based degradation assay (Nano-Glo HiBiT Lytic Detection, 24 h). As to conditions: HeLa cell line expressing HiBit-BRG1 and LgBit; for Dmax: read-out: BRG1 HiBit Degradation Maximum (%); for DC50: read-out: BRMG1 HiBit Degradation IC50. The protocol: Procedure: A stable HeLa cell line expressing HiBiT-BRM was generated. On day 0, 5000 cells were seeded in 40 μL of media into each well of 384-well cell culture plates. […] Subsequently plates were incubated for 24 h in a standard tissue culture incubator and equilibrated at room temperature for 15 minutes. Nano-Glo HiBiT Lytic Detection System (Promega N3050) reagent was freshly prepared and 20 ul was added to each well. Upon addition of this LgBit-containing reagent, the HiBiT and LgBiT proteins associate to form the luminescent NanoBiT luciferase. The plates were shaken for 10 minutes at room temperature and the bioluminescence read using an EnVision plate reader (PerkinElmer).
For measurement of BRG1 degradation, a stable HeLa cell line expressing HiBit-BRG1 and LgBit was generated. The same protocol as above was then followed.
(§1) The degradation % was calculated using the following formula: % degradation=100%−100%×(LumSample−LumLC)/(LumHC−LumLC). DMSO treated cells are employed as High Control (HC) and 2 μM of a known BRM/BRG1 degrader standard treated cells are employed as Low Control (LC).
In general terms: With HiBiT, luminescence reflects the tagged protein that the partner subunit can reach.

The target of a further test is T2, HiBit-BRM fusion protein (Homo sapiens, UniProt P51531).
T2 construct: expressed in transfected cells
The experiment in a line: HiBiT-BRM cell-based degradation assay (Nano-Glo HiBiT Lytic Detection, 24 h). The note with it: HeLa cell line expressing HiBiT-BRM; for DC50: read-out: BRM HiBit Degradation IC50. The protocol:
Procedure: A stable HeLa cell line expressing HiBiT-BRM was generated. On day 0, 5000 cells were seeded in 40 μL of media into each well of 384-well cell culture plates. On day 1, cells were treated with 120 nL DMSO or 120 nL of 3-fold serially DMSO-diluted compounds (10 points in duplicate with 30 μM as final top dose). Subsequently plates were incubated for 24 h in a standard tissue culture incubator and equilibrated at room temperature for 15 minutes. Nano-Glo HiBiT Lytic Detection System (Promega N3050) reagent was freshly prepared and 20 ul was added to each well. Upon addition of this LgBit-containing reagent, the HiBiT and LgBiT proteins associate to form the luminescent NanoBiT luciferase. The plates were shaken for 10 minutes at room temperature and the bioluminescence read using an EnVision plate reader (PerkinElmer).
as §1

Structures can show the parent of a compound that is named as a salt. Where only a bound is given, the exact number is not on record here.

T2 sequence (P51531 whole entry, the tested form may be a part): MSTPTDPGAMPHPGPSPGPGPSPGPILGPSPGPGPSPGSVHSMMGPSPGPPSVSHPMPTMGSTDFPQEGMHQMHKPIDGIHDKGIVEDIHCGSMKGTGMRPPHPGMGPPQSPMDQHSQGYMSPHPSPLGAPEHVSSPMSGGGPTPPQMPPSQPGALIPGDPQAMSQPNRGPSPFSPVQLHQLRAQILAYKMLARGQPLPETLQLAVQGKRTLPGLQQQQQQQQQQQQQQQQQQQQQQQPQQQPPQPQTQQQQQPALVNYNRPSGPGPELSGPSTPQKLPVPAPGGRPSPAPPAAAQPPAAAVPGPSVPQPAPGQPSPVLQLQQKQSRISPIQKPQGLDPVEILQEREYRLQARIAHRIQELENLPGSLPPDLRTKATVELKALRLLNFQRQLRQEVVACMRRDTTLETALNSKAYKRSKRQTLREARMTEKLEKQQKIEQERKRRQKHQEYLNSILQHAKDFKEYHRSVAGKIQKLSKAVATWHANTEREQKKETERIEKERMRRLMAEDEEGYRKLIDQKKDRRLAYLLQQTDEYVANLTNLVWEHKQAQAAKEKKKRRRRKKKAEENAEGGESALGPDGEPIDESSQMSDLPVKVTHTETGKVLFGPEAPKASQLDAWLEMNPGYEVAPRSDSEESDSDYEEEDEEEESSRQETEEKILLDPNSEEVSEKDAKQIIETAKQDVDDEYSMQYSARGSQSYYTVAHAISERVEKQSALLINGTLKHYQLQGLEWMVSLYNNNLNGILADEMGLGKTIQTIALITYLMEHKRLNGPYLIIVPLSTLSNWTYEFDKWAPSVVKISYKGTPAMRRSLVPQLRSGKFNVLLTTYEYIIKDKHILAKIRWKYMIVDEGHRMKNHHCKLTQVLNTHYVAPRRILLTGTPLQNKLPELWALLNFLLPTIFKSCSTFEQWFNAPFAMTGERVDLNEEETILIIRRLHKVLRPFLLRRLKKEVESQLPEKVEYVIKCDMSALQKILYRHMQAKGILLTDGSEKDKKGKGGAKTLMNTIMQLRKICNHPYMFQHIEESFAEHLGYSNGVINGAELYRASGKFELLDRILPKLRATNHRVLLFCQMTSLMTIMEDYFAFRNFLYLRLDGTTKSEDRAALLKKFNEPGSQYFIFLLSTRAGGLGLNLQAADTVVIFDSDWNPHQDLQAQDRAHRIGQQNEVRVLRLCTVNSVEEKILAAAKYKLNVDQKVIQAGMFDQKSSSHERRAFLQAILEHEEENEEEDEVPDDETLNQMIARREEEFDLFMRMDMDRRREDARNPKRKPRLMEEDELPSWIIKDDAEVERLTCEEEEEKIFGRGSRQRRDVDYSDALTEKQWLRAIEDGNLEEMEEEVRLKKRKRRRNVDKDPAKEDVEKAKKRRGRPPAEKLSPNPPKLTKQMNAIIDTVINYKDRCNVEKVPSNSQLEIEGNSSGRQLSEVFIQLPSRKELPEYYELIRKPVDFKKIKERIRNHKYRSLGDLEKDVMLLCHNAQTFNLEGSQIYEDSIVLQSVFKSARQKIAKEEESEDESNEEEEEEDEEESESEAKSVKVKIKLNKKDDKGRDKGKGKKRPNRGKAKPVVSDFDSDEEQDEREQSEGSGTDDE
T1 sequence (P51532 whole entry, the tested form may be a part): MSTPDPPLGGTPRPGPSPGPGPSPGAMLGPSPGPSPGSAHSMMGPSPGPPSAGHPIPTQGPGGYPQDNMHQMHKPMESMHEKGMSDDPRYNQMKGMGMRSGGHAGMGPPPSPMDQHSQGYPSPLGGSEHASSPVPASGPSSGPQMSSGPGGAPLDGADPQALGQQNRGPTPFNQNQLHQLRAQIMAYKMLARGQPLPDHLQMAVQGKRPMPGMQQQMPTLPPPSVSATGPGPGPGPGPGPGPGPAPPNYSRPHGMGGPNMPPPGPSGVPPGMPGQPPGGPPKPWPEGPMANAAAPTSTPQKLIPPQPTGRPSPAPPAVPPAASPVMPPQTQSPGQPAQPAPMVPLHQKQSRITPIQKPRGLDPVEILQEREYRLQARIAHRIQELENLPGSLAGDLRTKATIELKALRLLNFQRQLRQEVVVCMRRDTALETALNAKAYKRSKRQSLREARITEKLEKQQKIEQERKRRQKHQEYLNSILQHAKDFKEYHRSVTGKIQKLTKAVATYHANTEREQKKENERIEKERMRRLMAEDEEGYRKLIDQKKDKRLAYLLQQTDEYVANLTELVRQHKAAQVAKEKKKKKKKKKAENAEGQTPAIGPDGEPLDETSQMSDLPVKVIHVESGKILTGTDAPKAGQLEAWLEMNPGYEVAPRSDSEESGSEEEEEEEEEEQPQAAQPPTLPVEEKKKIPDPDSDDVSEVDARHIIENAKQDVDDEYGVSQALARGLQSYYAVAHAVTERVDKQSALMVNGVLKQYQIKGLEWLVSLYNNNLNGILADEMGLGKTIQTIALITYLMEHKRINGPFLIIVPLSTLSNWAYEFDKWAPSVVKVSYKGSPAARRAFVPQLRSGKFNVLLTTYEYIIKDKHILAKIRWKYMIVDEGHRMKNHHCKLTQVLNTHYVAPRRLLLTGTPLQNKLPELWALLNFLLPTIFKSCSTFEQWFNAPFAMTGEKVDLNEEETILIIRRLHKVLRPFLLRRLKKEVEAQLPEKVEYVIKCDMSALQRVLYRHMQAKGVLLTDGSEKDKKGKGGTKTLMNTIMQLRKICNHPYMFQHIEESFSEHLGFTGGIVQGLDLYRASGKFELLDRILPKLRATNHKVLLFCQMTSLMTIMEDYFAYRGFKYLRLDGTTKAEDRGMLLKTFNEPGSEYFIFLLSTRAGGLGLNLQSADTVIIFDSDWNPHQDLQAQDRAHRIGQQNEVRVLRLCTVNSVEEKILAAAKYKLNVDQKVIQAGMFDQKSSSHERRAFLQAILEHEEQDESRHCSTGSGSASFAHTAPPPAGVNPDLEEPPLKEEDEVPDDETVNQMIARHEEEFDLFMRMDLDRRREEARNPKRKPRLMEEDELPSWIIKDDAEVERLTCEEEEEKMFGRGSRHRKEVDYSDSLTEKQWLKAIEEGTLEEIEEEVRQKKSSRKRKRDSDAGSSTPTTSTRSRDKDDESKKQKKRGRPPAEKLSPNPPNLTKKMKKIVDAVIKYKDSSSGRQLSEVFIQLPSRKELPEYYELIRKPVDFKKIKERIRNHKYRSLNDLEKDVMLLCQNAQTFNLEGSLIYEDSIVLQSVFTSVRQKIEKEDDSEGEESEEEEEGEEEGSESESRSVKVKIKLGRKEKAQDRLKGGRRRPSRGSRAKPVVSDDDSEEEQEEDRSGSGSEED

As for `Cc1ncsc1-c1ccc([C@H](C)NC(=O)[C@@H]2C[C@@H](O)CN2C(=O)[C@@H](c2cc(OCCN(C)CC34CC(c5cc6cc(-c7ccccc7O)nnc6[nH]5)(C3)C4)no2)C(C)C)cc1` (racemic) [Compound 246, (2S,4R)-4-hydroxy-1-((R)-2-(3-(2-(((3-(3-(2-hydroxyphenyl)-7H-pyrrolo[2,3-c]pyridazin-6-yl)bicyclo[1.1.1]pentan-1-yl)methyl)(methyl)amino)ethoxy)isoxazol-5-yl)-3-methylbutanoyl)-N-((S)-1-(4-(4-methylthiazol-5-yl)phenyl)ethyl)pyrrolidine-2-carboxamide], in test [1], the Dmax was greater than 75% and the DC50 is greater than 100 nM. At HiBit-BRM fusion protein, the “BRM HiBit Degradation Maximum (%)” value is recorded as “A (“A” indicates maximum degradation ≥ 75%)” and the DC50 was greater than 10 nM.

`Cc1ncsc1-c1ccc([C@H](C)NC(=O)[C@@H]2C[C@@H](O)CN2C(=O)[C@@H](c2cc(N3CCC(C(=O)NC(=N)N4CCc5[nH]c6nnc(-c7ccccc7O)cc6c5C4)CC3)no2)C(C)C)cc1` (racemic) [Compound 74, 1-{5-[(2R)-1-[(2S,4R)-4-hydroxy-2-{[(1S)-1-[4-(4-methyl-1,3-thiazol-5-yl)phenyl]ethyl]carbamoyl}pyrrolidin-1-yl]-3-methyl-1-oxobutan-2-yl]-1,2-oxazol-3-yl}-N-[12-(2-hydroxyphenyl)-4,8,10,11-tetraazatricyclo[7.4.0.0^{2,7}]trideca-1(13),2(7),9,11-tetraene-4-carboximidoyl]piperidine-4-carboxamide]: the Dmax in test [1] was less than 50%. On HiBit-BRM fusion protein, the “BRM HiBit Degradation Maximum (%)” value is listed as “A (“A” indicates maximum degradation ≥ 75%)” and the DC50 was greater than 10 nM.

As for `O=C1CCC(N2C(=O)c3cccc(NCCOCCOCCC(=O)N4CC(c5cc6cc(-c7ccccc7O)nnc6[nH]5)C4)c3C2=O)C(=O)N1` (stereo not drawn) [Compound 27, 2-(2,6-dioxopiperidin-3-yl)-4-((2-(2-(3-(3-(3-(2-hydroxyphenyl)-7H-pyrrolo[2,3-c]pyridazin-6-yl)azetidin-1-yl)-3-oxopropoxy)ethoxy)ethyl)amino)isoindoline-1,3-dione], the Dmax in test [1] was less than 50%. The “BRM HiBit Degradation Maximum (%)” value on HiBit-BRM fusion protein is on record as “C (“C” indicates maximum degradation < 50%)”.

Turning to `Cc1ncsc1-c1ccc([C@H](C)NC(=O)[C@@H]2C[C@@H](O)CN2C(=O)[C@@H](c2cc(OCCN3CC(C4(C)CNc5nnc(-c6ccccc6O)cc54)C3)no2)C(C)C)cc1` (mixture of isomers) [Compound 134], the Dmax in test [1] is less than 50%. In addition, the “BRM HiBit Degradation Maximum (%)” value at HiBit-BRM fusion protein is “C (“C” indicates maximum degradation < 50%)”.

For the molecule `Cc1ncsc1-c1ccc(CNC(=O)[C@@H]2C[C@@H](O)CN2C(=O)[C@@H](NC(=O)CCCCC(=O)NC23CC(c4cc5cc(-c6ccccc6O)nnc5[nH]4)(C2)C3)C(C)(C)C)cc1` (racemic) [Compound 299, N1-((S)-1-((2S,4R)-4-hydroxy-2-((4-(4-methylthiazol-5-yl)benzyl)carbamoyl)pyrrolidin-1-yl)-3,3-dimethyl-1-oxobutan-2-yl)-N6-(3-(3-(2-hydroxyphenyl)-7H-pyrrolo[2,3-c]pyridazin-6-yl)bicyclo[1.1.1]pentan-1-yl)adipamide], the Dmax in test [1] is less than 50%. Also, at HiBit-BRM fusion protein, the “BRM HiBit Degradation Maximum (%)” value was “B (“B” indicates maximum degradation ≥ 50%)” and the DC50 is greater than 1000 nM.

Turning to `Cc1ncsc1-c1ccc([C@H](C)NC(=O)[C@@H]2C[C@@H](O)CN2C(=O)[C@@H](c2cc(OCCNC34CC(c5cc6cc(-c7ccccc7O)nnc6[nH]5)(C3)C4)no2)C(C)C)cc1` (racemic) [Compound 53, (2S,4R)-4-hydroxy-1-((R)-2-(3-(2-((3-(3-(2-hydroxyphenyl)-7H-pyrrolo[2,3-c]pyridazin-6-yl)bicyclo[1.1.1]pentan-1-yl)amino)ethoxy)isoxazol-5-yl)-3-methylbutanoyl)-N-((S)-1-(4-(4-methylthiazol-5-yl)phenyl)ethyl)pyrrolidine-2-carboxamide], in test [1], the Dmax was greater than 75% and the DC50 is greater than 10 nM. In addition, at HiBit-BRM fusion protein, the “BRM HiBit Degradation Maximum (%)” value is “A (“A” indicates maximum degradation ≥ 75%)” and the DC50 was greater than 10 nM.

`Cc1ncsc1-c1ccc([C@H](C)NC(=O)[C@@H]2C[C@@H](O)CN2C(=O)[C@@H](c2cc(OCCN3CC(c4c[nH]c5nnc(-c6ccccc6O)cc45)C3)no2)C(C)C)cc1` [Compound 15, (2S,4R)-4-hydroxy-1-((R)-2-(3-(2-(3-(3-(2-hydroxyphenyl)-7H-pyrrolo[2,3-c]pyridazin-5-yl)azetidin-1-yl)ethoxy)isoxazol-5-yl)-3-methylbutanoyl)-N—((S)-1-(4-(4-methylthiazol-5-yl)phenyl)ethyl)pyrrolidine-2-carboxamide formate]: on HiBit-BRM fusion protein, the “BRM HiBit Degradation Maximum (%)” value is reported as “A (“A” indicates maximum degradation ≥ 75%)” and the DC50 was greater than 100 nM.

With `Cc1ncsc1-c1ccc([C@H](C)NC(=O)[C@@H]2C[C@@H](O)CN2C(=O)[C@H](c2cc(OCCN3CC(c4cc5cc(-c6ccccc6O)nnc5[nH]4)C3)no2)C(C)C)cc1` (racemic) [Compound 62, (2S,4R)-4-hydroxy-1-((S)-2-(3-(2-(3-(3-(2-hydroxyphenyl)-7H-pyrrolo[2,3-c]pyridazin-6-yl)azetidin-1-yl)ethoxy)isoxazol-5-yl)-3-methylbutanoyl)-N-((S)-1-(4-(4-methylthiazol-5-yl)phenyl)ethyl)pyrrolidine-2-carboxamide], the “BRM HiBit Degradation Maximum (%)” value on HiBit-BRM fusion protein is “C (“C” indicates maximum degradation < 50%)”.

As for `Cc1ncsc1-c1ccc([C@H](C)NC(=O)[C@@H]2C[C@@H](O)CN2C(=O)[C@@H](c2cc(N3CCN(CCN4CC(c5cc6cc(-c7ccccc7O)nnc6[nH]5)C4)CC3)no2)C(C)C)cc1` (racemic) [Compound 273, (2S,4R)-4-hydroxy-1-[(2R)-2-{3-[4-(2-{3-[3-(2-hydroxyphenyl)-7H-pyrrolo[2,3-c]pyridazin-6-yl]azetidin-1-yl}ethyl)piperazin-1-yl]-1,2-oxazol-5-yl}-3-methylbutanoyl]-N-[(1S)-1-[4-(4-methyl-1,3-thiazol-5-yl)phenyl]ethyl]pyrrolidine-2-carboxamide], at HiBit-BRM fusion protein, the “BRM HiBit Degradation Maximum (%)” value is recorded as “A (“A” indicates maximum degradation ≥ 75%)” and the DC50 was greater than 100 nM.

With `Cc1ncsc1-c1ccc([C@H](C)NC(=O)[C@@H]2C[C@@H](O)CN2C(=O)[C@@H](c2cc(C3CCN(C(=O)N4CCc5[nH]c6nnc(-c7ccccc7O)cc6c5C4)CC3)no2)C(C)C)cc1` [Compound 105, (2S,4R)-4-hydroxy-1-((R)-2-(3-(1-(3-(2-hydroxyphenyl)-6,7,8,9-tetrahydro-5H-pyrido[3′,4′:4,5]pyrrolo[2,3-c]pyridazine-6-carbonyl)piperidin-4-yl)isoxazol-5-yl)-3-methylbutanoyl)-N—((S)-1-(4-(4-methylthiazol-5-yl)phenyl)ethyl)pyrrolidine-2-carboxamide], on HiBit-BRM fusion protein, the “BRM HiBit Degradation Maximum (%)” value was “A (“A” indicates maximum degradation ≥ 75%)” and the DC50 is greater than 10 nM.

`Cc1ncsc1-c1ccc([C@H](C)NC(=O)[C@@H]2C[C@@H](O)CN2C(=O)[C@@H](c2cc(OCCN3CC(c4cc5cc(-c6ccccc6O)nnc5[nH]4)C3)no2)C(C)C)cc1` [Compound 14, (2S,4R)-4-hydroxy-1-((R)-2-(3-(2-(3-(3-(2-hydroxyphenyl)-7H-pyrrolo[2,3-c]pyridazin-6-yl)azetidin-1-yl)ethoxy)isoxazol-5-yl)-3-methylbutanoyl)-N—((S)-1-(4-(4-methylthiazol-5-yl)phenyl)ethyl)pyrrolidine-2-carboxamide formate]: on HiBit-BRM fusion protein, the “BRM HiBit Degradation Maximum (%)” value is listed as “A (“A” indicates maximum degradation ≥ 75%)” and the DC50 is greater than 10 nM.
